This is an account of results in paper PMC6099940, “Design, Synthesis and Biological Evaluation of Novel Phenylsulfonylurea Derivatives as PI3K/mTOR Dual Inhibitors” (Molecules : A Journal of Synthetic Chemistry and Natural …, 2018).

Data set [1] relates to HepG-2. The experiment in a line: In vitro cytotoxicity, MTT assay, HepG-2. The class given is cell-based. The settings on record: 72 h, average of two separate determinations.
Data set [2] concerns A549. The data set is described as follows: In vitro cytotoxicity, MTT assay, A549. The format is cell-based. The settings on record: A549 cells, 72 h, average of two separate determinations.
Data set [3] has as its system PC-3. The data set is described as follows: In vitro cytotoxicity, MTT assay, PC-3. The format is cell-based. The conditions noted are these: PC-3 cells, 72 h, average of two separate determinations.
The subject of data set [4] is MCF-7. The experiment in a line: In vitro cytotoxicity, MTT assay, MCF-7. The class given is cell-based. The settings on record: MCF-7 cells.
For data set [5], the target named is PI3Kα (Homo sapiens, UniProt P42336). The data set is described as follows: PI3Kα kinase assay (Kinase-Glo Luminescent Kinase Assay). The class given is biochemical. The settings on record: 1 µM ATP, 60 min, average of two determinations.
PI3Kα, sequence (P42336 whole entry): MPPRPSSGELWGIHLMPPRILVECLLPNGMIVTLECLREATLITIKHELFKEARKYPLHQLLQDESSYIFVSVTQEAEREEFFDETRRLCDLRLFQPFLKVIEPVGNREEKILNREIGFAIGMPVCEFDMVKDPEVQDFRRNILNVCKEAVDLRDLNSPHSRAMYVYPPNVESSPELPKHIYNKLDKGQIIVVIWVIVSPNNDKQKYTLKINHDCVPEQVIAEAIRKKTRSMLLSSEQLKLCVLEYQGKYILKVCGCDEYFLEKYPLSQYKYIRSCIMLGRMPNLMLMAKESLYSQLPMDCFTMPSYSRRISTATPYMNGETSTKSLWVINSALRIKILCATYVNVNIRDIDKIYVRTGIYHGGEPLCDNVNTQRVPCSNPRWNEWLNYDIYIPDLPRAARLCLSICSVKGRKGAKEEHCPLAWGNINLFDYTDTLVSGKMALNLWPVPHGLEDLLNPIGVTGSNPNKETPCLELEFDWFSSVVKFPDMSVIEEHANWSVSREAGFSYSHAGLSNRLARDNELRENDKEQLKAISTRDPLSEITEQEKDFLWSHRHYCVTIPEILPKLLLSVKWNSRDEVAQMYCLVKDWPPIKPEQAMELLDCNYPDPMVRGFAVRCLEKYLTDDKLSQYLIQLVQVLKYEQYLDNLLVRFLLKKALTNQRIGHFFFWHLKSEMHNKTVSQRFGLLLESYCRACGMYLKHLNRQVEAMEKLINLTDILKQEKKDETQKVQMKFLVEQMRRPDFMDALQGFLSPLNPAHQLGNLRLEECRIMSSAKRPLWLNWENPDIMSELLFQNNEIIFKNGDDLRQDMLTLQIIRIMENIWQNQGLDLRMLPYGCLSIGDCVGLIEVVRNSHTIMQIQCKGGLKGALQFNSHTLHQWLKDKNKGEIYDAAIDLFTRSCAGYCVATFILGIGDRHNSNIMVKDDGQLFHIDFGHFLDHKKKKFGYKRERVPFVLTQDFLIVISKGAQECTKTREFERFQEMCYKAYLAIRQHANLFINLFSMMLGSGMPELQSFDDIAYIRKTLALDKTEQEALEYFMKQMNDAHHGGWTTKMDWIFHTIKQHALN
PI3Kα, sequence (P27986 whole entry partner): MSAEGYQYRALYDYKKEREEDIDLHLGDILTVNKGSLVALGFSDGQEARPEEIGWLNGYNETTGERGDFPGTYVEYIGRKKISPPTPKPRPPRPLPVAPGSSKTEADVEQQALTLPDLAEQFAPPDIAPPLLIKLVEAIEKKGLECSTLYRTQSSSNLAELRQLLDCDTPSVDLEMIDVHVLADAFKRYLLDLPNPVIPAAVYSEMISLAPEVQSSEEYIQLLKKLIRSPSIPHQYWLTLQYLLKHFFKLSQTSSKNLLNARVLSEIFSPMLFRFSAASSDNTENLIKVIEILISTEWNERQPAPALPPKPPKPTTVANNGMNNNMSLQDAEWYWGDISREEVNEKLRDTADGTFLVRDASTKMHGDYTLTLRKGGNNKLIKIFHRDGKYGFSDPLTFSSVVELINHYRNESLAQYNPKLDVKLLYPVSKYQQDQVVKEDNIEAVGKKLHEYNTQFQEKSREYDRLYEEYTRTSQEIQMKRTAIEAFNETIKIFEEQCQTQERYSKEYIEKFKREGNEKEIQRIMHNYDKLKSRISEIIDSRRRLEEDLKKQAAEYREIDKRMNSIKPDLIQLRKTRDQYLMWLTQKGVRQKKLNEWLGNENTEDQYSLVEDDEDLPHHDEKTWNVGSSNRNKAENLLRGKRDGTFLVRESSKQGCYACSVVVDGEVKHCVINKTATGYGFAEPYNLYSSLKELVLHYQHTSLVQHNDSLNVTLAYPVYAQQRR
Data set [6] has as its target mTOR (Homo sapiens, UniProt P42345). The experiment in a line: mTOR kinase assay (Kinase-Glo Luminescent Kinase Assay). The format is biochemical. The settings on record: 10 µM ATP, 60 min, average of two determinations.
Where [7] appears, read: Homo sapiens, HepG2, HepG-2 cells.
Where [8] appears, read: Homo sapiens, MCF7, MTT, 72 h, average of two separate determinations, read-out: IC50 (µM) MCF-7.

Where two headings read alike, the source gives them in different places.

Regarding `CC(C)(C#N)c1ccc(Nc2c(NC(=O)NS(=O)(=O)c3ccc(F)cc3)cnc3ccc(Br)cc23)cc1` [19a, N-((6-Bromo-4-((4-(2-cyanopropan-2-yl)phenyl)amino)quinolin-3-yl)carbamoyl)-4-fluorobenzenesulfonamide carboxamide], the IC50 in data set [1] (HepG-2 cells) came out at 33.3 ± 1.52 µM; in data set [2] it was 38.5 ± 1.04 µM; in data set [3], 66.6 ± 1.28 µM; in data set [4] (MTT, 72 h, average of two separate determinations, read-out: IC50 (µM) MCF-7), 3.88 ± 0.58 µM; in data set [4] (read-out: IC50 value against MCF-7 cell (conclusions text, unit inferred)) it was 2.88 ± 0.58 µM; in data set [5], 0.72 µM. In addition, in data set [6], the midpoint of inhibition, the IC50, lay at 2.62 µM.

As to `COc1ccc(Nc2c(NC(=O)NS(=O)(=O)c3ccc(C(C)(C)C)cc3)c(C)nc3ccc(OC)cc23)cc1` [23b, 4-(tert-Butyl)-N-((6-methoxy-4-((4-methoxyphenyl)amino)-2-methylquinolin-3-yl)carbamoyl)benzenesulfonamide], the melting point fell in the range of 291.2 to 292.7 °C. This compound gave an IC50 in data set [1] (setting [7]) of 2.71 ± 0.43 µM. 7.47 ± 0.87 µM corresponded to half-maximal inhibition in data set [2] (Homo sapiens) (IC50). In data set [3] (Homo sapiens), this compound displayed an IC50 of over 100 µM. In addition, the IC50 in data set [4] (setting [8]) was found to be 6.55 ± 0.81 µM. The compound further yielded an IC50 in data set [5] of over 10 µM. Further, in data set [6], the IC50 was over 10 µM.

`COc1ccc2nc(C)c(NC(=O)NS(=O)(=O)c3ccc(F)cc3)c(Nc3ccc(F)c(Cl)c3)c2c1` [23d, N-((4-((3-Chloro-4-fluorophenyl)amino)-6-methoxy-2-methylquinolin-3-yl)carbamoyl)-4-fluorobenzenesulfonamide]: the melting point lay within 285.3 to 286.1 °C. Further, the midpoint of inhibition in data set [1] (setting [7]), the IC50, lay at 6.08 ± 1.04 µM. For the same compound, the IC50 in data set [2] (Homo sapiens) came to 38.1 ± 0.96 µM. The compound also returned an IC50 in data set [3] (Homo sapiens) of 57.9 ± 0.99 µM. The IC50 in data set [4] (setting [8]) worked out at 57 ± 1.75 µM.
